Assay results reported in PubChem BioAssay (NCI).
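A five-concentration, 48-hour dose response in 96-well plates underlies each endpoint, interpolated linearly between surrounding concentrations. GI50 = concentration required for 50% inhibition of growth. Definition used: TGI = concentration required for complete inhibition of growth.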

Key:
Test in all cases: NCI tumour cell line growth inhibition, 48 h
786-0 renal = tested on: 786-0 renal
A498 renal = tested on: A498 renal
A549 NSCLC = tested on: A549 NSCLC
ACHN renal = tested on: ACHN renal
BT-549 breast = tested on: BT-549 breast
CAKI-1 renal = tested on: CAKI-1 renal
CCRF-CEM leukemia = tested on: CCRF-CEM leukemia
COLO 205 colon = tested on: COLO 205 colon
DU-145 prostate = tested on: DU-145 prostate
EKVX NSCLC = tested on: EKVX NSCLC
HCC-2998 colon = tested on: HCC-2998 colon
HCT-116 colon = tested on: HCT-116 colon
HCT-15 colon = tested on: HCT-15 colon
HL-60(TB) leukemia = tested on: HL-60(TB) leukemia
HOP-62 NSCLC = tested on: HOP-62 NSCLC
HOP-92 NSCLC = tested on: HOP-92 NSCLC
HS 578T breast = tested on: HS 578T breast
HT29 colon = tested on: HT29 colon
IGROV1 ovarian = tested on: IGROV1 ovarian
K-562 leukemia = tested on: K-562 leukemia
KM12 colon = tested on: KM12 colon
LOX IMVI melanoma = tested on: LOX IMVI melanoma
M14 melanoma = tested on: M14 melanoma
MALME-3M melanoma = tested on: MALME-3M melanoma
MCF7 breast = tested on: MCF7 breast
MDA-MB-231 breast = tested on: MDA-MB-231 breast
MDA-MB-435 = tested on: MDA-MB-435
MOLT-4 leukemia = tested on: MOLT-4 leukemia
NCI-H226 lung = tested on: NCI-H226 lung
NCI-H23 lung = tested on: NCI-H23 lung
NCI-H460 lung = tested on: NCI-H460 lung
NCI-H522 lung = tested on: NCI-H522 lung
NCI/ADR-RES ovarian = tested on: NCI/ADR-RES ovarian
OVCAR-3 ovarian = tested on: OVCAR-3 ovarian
OVCAR-4 ovarian = tested on: OVCAR-4 ovarian
OVCAR-5 ovarian = tested on: OVCAR-5 ovarian
OVCAR-8 ovarian = tested on: OVCAR-8 ovarian
PC-3 prostate = tested on: PC-3 prostate
RPMI-8226 leukemia = tested on: RPMI-8226 leukemia
RXF 393 renal = tested on: RXF 393 renal
SF-268 CNS = tested on: SF-268 CNS
SF-295 CNS = tested on: SF-295 CNS
SF-539 CNS = tested on: SF-539 CNS
SK-MEL-2 melanoma = tested on: SK-MEL-2 melanoma
SK-MEL-28 melanoma = tested on: SK-MEL-28 melanoma
SK-MEL-5 melanoma = tested on: SK-MEL-5 melanoma
SK-OV-3 ovarian = tested on: SK-OV-3 ovarian
SN12C renal = tested on: SN12C renal
SNB-19 CNS = tested on: SNB-19 CNS
SNB-75 CNS = tested on: SNB-75 CNS
SR leukemia = tested on: SR leukemia
SW-620 colon = tested on: SW-620 colon
T-47D breast = tested on: T-47D breast
TK-10 renal = tested on: TK-10 renal
U251 CNS = tested on: U251 CNS
UACC-257 melanoma = tested on: UACC-257 melanoma
UACC-62 melanoma = tested on: UACC-62 melanoma
UO-31 renal = tested on: UO-31 renal

SMILES: C[C@@H](Nc1c(C#N)cnc2ccc(-c3cnc(Cl)c(NS(C)(=O)=O)c3)cc12)c1ccccc1
- GI50 (786-0 renal): 365 nM
- TGI (786-0 renal): > 100000 nM
- GI50 (A498 renal): 207 nM
- TGI (A498 renal): 778 nM
- GI50 (A549 NSCLC): 492 nM
- TGI (A549 NSCLC): 6470 nM
- GI50 (ACHN renal): 540 nM
- TGI (ACHN renal): 44100 nM
- GI50 (BT-549 breast): 146 nM
- TGI (BT-549 breast): 2560 nM
- GI50 (CAKI-1 renal): 241 nM
- TGI (CAKI-1 renal): 3980 nM
- GI50 (CCRF-CEM leukemia): 178 nM
- TGI (CCRF-CEM leukemia): > 21400 nM
- GI50 (COLO 205 colon): 340 nM
- TGI (COLO 205 colon): 2240 nM
- GI50 (DU-145 prostate): 380 nM
- TGI (DU-145 prostate): 11700 nM
- GI50 (EKVX NSCLC): 431 nM
- TGI (EKVX NSCLC): 5350 nM
- GI50 (HCC-2998 colon): 515 nM
- TGI (HCC-2998 colon): 8730 nM
- GI50 (HCT-116 colon): 124 nM
- TGI (HCT-116 colon): 4830 nM
- GI50 (HCT-15 colon): 303 nM
- TGI (HCT-15 colon): 11500 nM
- GI50 (HL-60(TB) leukemia): 222 nM
- TGI (HL-60(TB) leukemia): 6480 nM
- GI50 (HOP-62 NSCLC): 326 nM
- TGI (HOP-62 NSCLC): 5120 nM
- GI50 (HOP-92 NSCLC): 51.5 nM
- TGI (HOP-92 NSCLC): 636 nM
- GI50 (HS 578T breast): 181 nM
- TGI (HS 578T breast): 1290 nM
- GI50 (HT29 colon): 351 nM
- TGI (HT29 colon): 12900 nM
- GI50 (IGROV1 ovarian): 181 nM
- TGI (IGROV1 ovarian): 1010 nM
- GI50 (K-562 leukemia): 264 nM
- TGI (K-562 leukemia): > 100000 nM
- GI50 (KM12 colon): 493 nM
- TGI (KM12 colon): 11300 nM
- GI50 (LOX IMVI melanoma): 275 nM
- TGI (LOX IMVI melanoma): 1680 nM
- GI50 (M14 melanoma): 442 nM
- TGI (M14 melanoma): 12500 nM
- GI50 (MALME-3M melanoma): 166 nM
- TGI (MALME-3M melanoma): 1820 nM
- GI50 (MCF7 breast): 41.7 nM
- TGI (MCF7 breast): 4080 nM
- GI50 (MDA-MB-231 breast): 594 nM
- TGI (MDA-MB-231 breast): 16600 nM
- GI50 (MDA-MB-435): 495 nM
- TGI (MDA-MB-435): 11400 nM
- GI50 (MOLT-4 leukemia): 144 nM
- TGI (MOLT-4 leukemia): 1810 nM
- GI50 (NCI-H226 lung): 676 nM
- TGI (NCI-H226 lung): 18200 nM
- GI50 (NCI-H23 lung): 233 nM
- TGI (NCI-H23 lung): 5840 nM
- GI50 (NCI-H460 lung): 357 nM
- TGI (NCI-H460 lung): 12000 nM
- GI50 (NCI-H522 lung): 440 nM
- TGI (NCI-H522 lung): 11500 nM
- GI50 (NCI/ADR-RES ovarian): 1610 nM
- TGI (NCI/ADR-RES ovarian): 32100 nM
- GI50 (OVCAR-3 ovarian): 260 nM
- TGI (OVCAR-3 ovarian): 3820 nM
- GI50 (OVCAR-4 ovarian): 450 nM
- TGI (OVCAR-4 ovarian): 15400 nM
- GI50 (OVCAR-5 ovarian): 544 nM
- TGI (OVCAR-5 ovarian): 19200 nM
- GI50 (OVCAR-8 ovarian): 559 nM
- TGI (OVCAR-8 ovarian): > 36600 nM
- GI50 (PC-3 prostate): 259 nM
- TGI (PC-3 prostate): 7970 nM
- GI50 (RPMI-8226 leukemia): 121 nM
- TGI (RPMI-8226 leukemia): 582 nM
- GI50 (RXF 393 renal): 158 nM
- TGI (RXF 393 renal): 877 nM
- GI50 (SF-268 CNS): 275 nM
- TGI (SF-268 CNS): 7330 nM
- GI50 (SF-295 CNS): 252 nM
- TGI (SF-295 CNS): 2290 nM
- GI50 (SF-539 CNS): 372 nM
- TGI (SF-539 CNS): 4080 nM
- GI50 (SK-MEL-2 melanoma): 249 nM
- TGI (SK-MEL-2 melanoma): 1590 nM
- GI50 (SK-MEL-28 melanoma): 346 nM
- TGI (SK-MEL-28 melanoma): 11200 nM
- GI50 (SK-MEL-5 melanoma): 138 nM
- TGI (SK-MEL-5 melanoma): 283 nM
- GI50 (SK-OV-3 ovarian): 431 nM
- TGI (SK-OV-3 ovarian): 3180 nM
- GI50 (SN12C renal): 322 nM
- TGI (SN12C renal): > 100000 nM
- GI50 (SNB-19 CNS): 500 nM
- TGI (SNB-19 CNS): 12100 nM
- GI50 (SNB-75 CNS): < 35.3 nM
- TGI (SNB-75 CNS): 701 nM
- GI50 (SR leukemia): 206 nM
- TGI (SR leukemia): 6190 nM
- GI50 (SW-620 colon): 343 nM
- TGI (SW-620 colon): 12100 nM
- GI50 (T-47D breast): 112 nM
- TGI (T-47D breast): 3880 nM
- GI50 (TK-10 renal): 184 nM
- TGI (TK-10 renal): 1880 nM
- GI50 (U251 CNS): 335 nM
- TGI (U251 CNS): 13400 nM
- GI50 (UACC-257 melanoma): 495 nM
- TGI (UACC-257 melanoma): 7050 nM
- GI50 (UACC-62 melanoma): 206 nM
- TGI (UACC-62 melanoma): 2030 nM
- GI50 (UO-31 renal): 256 nM
- TGI (UO-31 renal): 9300 nM
